According to ChEMBL document CHEMBL1141995, “N-i-Propoxy-N-biphenylsulfonylaminobutylhydroxamic acids as potent and selective inhibitors of MMP-2 and MT1-MMP” (Bioorg Med Chem Lett, 2005):
pIC50: −log10 of the molar value.

How the values were obtained:
[1] = biological target: Matrix metalloproteinase-9 (Homo sapiens, UniProt P14780); experiment: Inhibition of human matrix metalloprotease-9
Interstitial collagenase = biological target: T1, Interstitial collagenase (Homo sapiens, UniProt P03956); experiment: Inhibition of human matrix metalloprotease-1
T1 sequence (P03956 whole entry): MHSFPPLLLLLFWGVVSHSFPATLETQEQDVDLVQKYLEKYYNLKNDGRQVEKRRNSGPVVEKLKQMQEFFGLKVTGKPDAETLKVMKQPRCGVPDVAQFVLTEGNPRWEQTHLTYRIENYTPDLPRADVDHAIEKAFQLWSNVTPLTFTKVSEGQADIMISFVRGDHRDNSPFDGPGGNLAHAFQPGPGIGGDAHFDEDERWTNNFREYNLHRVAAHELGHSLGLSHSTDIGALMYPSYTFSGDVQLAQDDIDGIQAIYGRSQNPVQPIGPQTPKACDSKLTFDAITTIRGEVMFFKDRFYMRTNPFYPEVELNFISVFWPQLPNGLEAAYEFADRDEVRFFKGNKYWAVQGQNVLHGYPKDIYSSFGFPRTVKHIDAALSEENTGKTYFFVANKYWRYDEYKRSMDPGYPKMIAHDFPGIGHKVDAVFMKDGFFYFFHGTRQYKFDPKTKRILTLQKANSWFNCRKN

Matrilysin = biological target: T2, Matrilysin (Homo sapiens, UniProt P09237); experiment: Inhibition of human matrix metalloprotease-7
T2 sequence (P09237 whole entry): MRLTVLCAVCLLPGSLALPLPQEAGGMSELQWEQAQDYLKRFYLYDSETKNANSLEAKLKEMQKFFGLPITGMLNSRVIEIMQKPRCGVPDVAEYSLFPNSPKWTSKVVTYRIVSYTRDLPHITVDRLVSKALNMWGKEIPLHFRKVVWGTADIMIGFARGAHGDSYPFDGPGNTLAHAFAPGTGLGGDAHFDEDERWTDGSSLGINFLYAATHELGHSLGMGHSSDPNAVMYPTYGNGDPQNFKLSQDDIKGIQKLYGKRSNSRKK

[2] = biological target: Matrix metalloproteinase-14 (Homo sapiens, UniProt P50281); experiment: Inhibition of human matrix metalloprotease-14
[3] = biological target: 72 kDa type IV collagenase (Homo sapiens, UniProt P08253); experiment: Inhibition of human matrix metalloprotease-2
Stromelysin-1 = Stromelysin-1 (Homo sapiens, UniProt P08254); experiment: Inhibition of human matrix metalloprotease-3
Neutrophil collagenase = Neutrophil collagenase (Homo sapiens, UniProt P22894); experiment: Inhibition of human matrix metalloprotease-8
Neutrophil collagenase, sequence (P22894 whole entry): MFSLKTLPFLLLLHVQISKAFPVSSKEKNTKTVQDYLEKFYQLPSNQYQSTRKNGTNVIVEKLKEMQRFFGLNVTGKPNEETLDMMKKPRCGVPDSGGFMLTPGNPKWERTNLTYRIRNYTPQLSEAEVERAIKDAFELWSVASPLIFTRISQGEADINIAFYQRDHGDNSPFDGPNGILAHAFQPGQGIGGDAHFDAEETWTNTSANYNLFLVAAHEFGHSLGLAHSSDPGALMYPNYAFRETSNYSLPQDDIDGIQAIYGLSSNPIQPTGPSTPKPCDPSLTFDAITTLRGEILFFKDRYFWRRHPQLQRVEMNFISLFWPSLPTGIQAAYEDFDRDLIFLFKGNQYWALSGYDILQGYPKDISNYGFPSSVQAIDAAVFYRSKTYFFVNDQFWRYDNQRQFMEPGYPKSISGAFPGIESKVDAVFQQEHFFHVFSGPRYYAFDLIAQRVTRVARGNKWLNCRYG

Matrix metalloproteinase-9, sequence (P14780 whole entry): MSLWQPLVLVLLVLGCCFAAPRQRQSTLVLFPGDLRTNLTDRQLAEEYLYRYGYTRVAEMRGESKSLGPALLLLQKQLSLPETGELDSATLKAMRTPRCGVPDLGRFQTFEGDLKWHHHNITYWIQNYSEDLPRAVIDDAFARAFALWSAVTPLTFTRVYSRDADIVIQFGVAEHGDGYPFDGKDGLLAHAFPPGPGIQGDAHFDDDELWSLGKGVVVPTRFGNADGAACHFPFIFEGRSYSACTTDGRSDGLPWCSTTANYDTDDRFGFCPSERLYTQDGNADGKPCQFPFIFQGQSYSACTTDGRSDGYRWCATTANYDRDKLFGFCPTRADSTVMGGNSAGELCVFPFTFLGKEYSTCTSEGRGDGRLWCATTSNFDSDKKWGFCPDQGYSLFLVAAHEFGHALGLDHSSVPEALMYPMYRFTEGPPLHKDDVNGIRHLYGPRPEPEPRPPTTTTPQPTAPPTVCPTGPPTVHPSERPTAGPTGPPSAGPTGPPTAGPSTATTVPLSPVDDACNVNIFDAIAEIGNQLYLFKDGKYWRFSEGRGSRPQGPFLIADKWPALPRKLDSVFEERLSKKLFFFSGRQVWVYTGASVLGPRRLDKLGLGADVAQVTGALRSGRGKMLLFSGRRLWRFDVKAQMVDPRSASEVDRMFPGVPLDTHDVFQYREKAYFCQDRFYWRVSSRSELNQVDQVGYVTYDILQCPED
Stromelysin-1, sequence (P08254 whole entry): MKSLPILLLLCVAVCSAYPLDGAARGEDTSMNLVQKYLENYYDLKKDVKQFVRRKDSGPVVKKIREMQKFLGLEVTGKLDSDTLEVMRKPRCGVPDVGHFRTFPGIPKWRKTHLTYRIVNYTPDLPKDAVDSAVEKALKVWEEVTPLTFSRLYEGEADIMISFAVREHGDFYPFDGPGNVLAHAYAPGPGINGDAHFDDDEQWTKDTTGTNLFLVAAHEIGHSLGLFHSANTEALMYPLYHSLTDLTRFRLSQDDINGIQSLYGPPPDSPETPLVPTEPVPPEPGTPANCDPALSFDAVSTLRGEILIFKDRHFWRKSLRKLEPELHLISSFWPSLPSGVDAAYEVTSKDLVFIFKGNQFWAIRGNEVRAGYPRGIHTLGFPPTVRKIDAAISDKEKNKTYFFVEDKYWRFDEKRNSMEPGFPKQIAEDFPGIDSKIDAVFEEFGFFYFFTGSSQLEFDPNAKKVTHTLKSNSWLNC
72 kDa type IV collagenase, sequence (P08253 whole entry): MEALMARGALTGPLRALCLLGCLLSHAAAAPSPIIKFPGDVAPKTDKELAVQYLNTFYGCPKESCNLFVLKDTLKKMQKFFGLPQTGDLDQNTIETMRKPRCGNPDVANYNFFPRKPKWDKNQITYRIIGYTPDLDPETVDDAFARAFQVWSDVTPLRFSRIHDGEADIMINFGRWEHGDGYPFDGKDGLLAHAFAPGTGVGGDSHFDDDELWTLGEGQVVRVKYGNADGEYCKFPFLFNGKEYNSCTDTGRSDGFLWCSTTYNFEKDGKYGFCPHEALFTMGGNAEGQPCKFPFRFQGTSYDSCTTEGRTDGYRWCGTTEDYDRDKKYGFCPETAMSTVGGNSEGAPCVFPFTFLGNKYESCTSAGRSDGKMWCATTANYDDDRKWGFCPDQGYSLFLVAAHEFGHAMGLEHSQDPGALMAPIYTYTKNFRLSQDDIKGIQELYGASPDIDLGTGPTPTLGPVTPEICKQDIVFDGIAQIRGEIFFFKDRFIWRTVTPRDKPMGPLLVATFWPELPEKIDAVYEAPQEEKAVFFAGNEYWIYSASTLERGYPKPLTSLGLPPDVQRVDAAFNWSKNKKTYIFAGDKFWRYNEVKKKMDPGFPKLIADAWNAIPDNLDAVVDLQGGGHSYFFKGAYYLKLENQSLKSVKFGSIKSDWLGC

| Compound | pIC50 [1] | pIC50 (Interstitial collagenase) | pIC50 (Matrilysin) | pIC50 [2] | pIC50 [3] | pIC50 (Stromelysin-1) | pIC50 (Neutrophil collagenase) |
| --- | --- | --- | --- | --- | --- | --- | --- |
| CC(C)ON(CC(=O)NO)S(=O)(=O)c1ccc(-c2ccccc2)cc1 | 6.70 | < 4.30 | < 4.30 | < 5.00 | 7.92 | 5.35 | – |
| COc1ccc(S(=O)(=O)N(Cc2cccnc2)[C@@H](C(=O)NO)C(C)C)cc1 [CGS-27023A] | – | – | 7.00 | 8.05 | – | – | – |
| CC(C)ON(C(C(=O)NO)C(C)C)S(=O)(=O)c1ccc(-c2ccccc2)cc1 (racemic) | 7.71 | – | – | – | 8.74 | – | – |
| CC1(C)SCCN(S(=O)(=O)c2ccc(Oc3ccncc3)cc2)[C@H]1C(=O)NO [PRINOMASTAT] | – | – | 7.27 | 9.52 | – | – | – |
| CC(C)ON([C@H](C(=O)NO)C(C)C)S(=O)(=O)c1ccc(-c2ccccc2)cc1 | 7.89 | – | – | – | 7.99 | – | – |
| CC(C)ON([C@@H](C(=O)NO)C(C)C)S(=O)(=O)c1ccc(-c2ccccc2)cc1 | 8.17 | – | < 4.95 | 8.01 | 10.05 | 7.30 | 8.80 |
| CC(C)ON([C@H](CCN)C(=O)NO)S(=O)(=O)c1ccc(-c2ccccc2)cc1 | 5.35 | – | – | < 6.52 | 6.03 | – | – |
| CC(C)ON([C@H](CCNC(=O)OCc1ccccc1)C(=O)NO)S(=O)(=O)c1ccc(-c2ccccc2)cc1 | 7.80 | < 5.52 | < 4.61 | 8.11 | 9.39 | 6.89 | – |
